Test results from patent US9598424B2 (Takeda Pharmaceutical Company Limited, priority 2014, dated 2017).

Assays:
Full length human TBK1 = target: T1, Full length human TBK1 (Homo sapiens, UniProt Q9UHD2); assay: Inhibition of TBK1 Enzyme (Caliper microfluidic assay); format: biochemical; conditions: 25 μM ATP, 60 min at RT, -log(IC50), IC50 molar; for IC50: read-out: TBK1 Inhibition (pIC50) (converted)
T1 construct: Full length human TBK1 with an N-terminal His-tag; His-tag (N); made in house; host or cells: Sf9 insect cells (baculovirus, pFastBac1)
T1 sequence (Q9UHD2 1-729): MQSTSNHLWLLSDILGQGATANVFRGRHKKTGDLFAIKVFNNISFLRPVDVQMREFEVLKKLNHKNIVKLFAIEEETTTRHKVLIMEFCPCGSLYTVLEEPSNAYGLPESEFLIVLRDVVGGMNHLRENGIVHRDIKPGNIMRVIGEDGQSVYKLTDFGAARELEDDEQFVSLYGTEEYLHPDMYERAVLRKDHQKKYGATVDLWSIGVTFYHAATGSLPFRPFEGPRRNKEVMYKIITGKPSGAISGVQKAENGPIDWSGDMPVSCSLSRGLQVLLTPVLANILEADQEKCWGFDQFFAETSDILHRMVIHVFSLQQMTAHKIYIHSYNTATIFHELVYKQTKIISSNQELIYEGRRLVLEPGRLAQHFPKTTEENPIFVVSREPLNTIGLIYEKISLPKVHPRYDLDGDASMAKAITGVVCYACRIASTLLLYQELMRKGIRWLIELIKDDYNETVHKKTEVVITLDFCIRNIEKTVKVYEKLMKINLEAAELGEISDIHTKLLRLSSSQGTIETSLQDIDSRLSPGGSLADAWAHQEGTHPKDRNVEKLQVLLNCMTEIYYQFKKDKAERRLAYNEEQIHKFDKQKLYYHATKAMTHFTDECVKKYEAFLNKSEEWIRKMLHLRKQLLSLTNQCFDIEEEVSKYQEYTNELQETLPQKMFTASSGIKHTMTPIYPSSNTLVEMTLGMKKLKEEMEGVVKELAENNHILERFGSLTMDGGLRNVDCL
How it was run: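 Enzyme: His-tagged full-length TBK1 expressed in Sf9. Reaction 60 min at RT in 20 mM Hepes pH 7.4, 10 mM MgCl2, 1 mM EDTA, 0.01% Brij-L23, 1 mM DTT, with 5FAM-peptide (added at 1 μM) and TBK1/ATP mix (added at 3 nM/25 μM), then EDTA-quenched. Conversion measured by microfluidic separation; 11-point 2.5-fold series fit to pIC50.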

TBK1 = target: T2, TBK1 (Homo sapiens, UniProt Q9UHD2); assay: Inhibition of TBK1 in Cells (TLR3 driven ISRE β-lactamase reporter assay); format: cell-based; conditions: poly IC-LMW stimulation 16 hrs, -log(EC50), EC50 molar; for EC50: read-out: Inhibition of TBK1 in cells pEC50 (EC) (converted)
T2 construct: host or cells: RA1-ISRE beta-lactamase reporter cells
T2 sequence (Q9UHD2 1-729): T1 sequence (Q9UHD2 1-729)
How it was run: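 RA1-ISRE β-lactamase reporter cells (50,000/well) treated with 11-point 2.5-fold compound dilutions and stimulated with 0.15 mg/ml poly IC-LMW for 16 hrs. Reporter read by CCF4-AM FRET; EC50 from non-linear fit of percent inhibition, reported as pEC50 (molar).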

Row | IC50 (Full length human TBK1) [nM] | melting point [°C] | EC50 (TBK1) [nM] | TBK1 Inhibition (pIC50) (Full length human TBK1) | Inhibition of TBK1 in cells pEC50 (EC) (TBK1) | Molecule
1 | 251 | 251 to 255 | 8320 |  |  | Cn1nc(-c2ccc3nc(NC(=O)C4CC4)cn3c2)cc1C(=O)NCC(F)(F)F [Example 1, 3-(2-(cyclopropanecarboxamido)imidazo[1,2-a]pyridin-6-yl)-1-methyl-N-(2,2,2-trifluoroethyl)-1H-pyrazole-5-carboxamide]
2 | 316 | 284 to 290 | 8320 |  |  | Cn1nc(-c2ccc3nc(NC(=O)C4CC4)cn3c2)cc1C(=O)NCC(F)F [Example 2, 3-(2-(cyclopropanecarboxamido)imidazo[1,2-a]pyridin-6-yl)-N-(2,2-difluoroethyl)-1-methyl-1H-pyrazole-5-carboxamide]
3 | 5.01 | 117 to 119 | 166 |  |  | CC(F)(F)CNC(=O)c1cc(-c2ccc3nc(NC(=O)C4CC4)cn3c2)cs1 [Example 3, 4-(2-(cyclopropanecarboxamido)imidazo[1,2-a]pyridin-6-yl)-N-(2,2-difluoropropyl)thiophene-2-carboxamide]
4 | 5.01 | 279 to 282 | 617 |  |  | O=C(NCC(F)(F)F)c1nc(-c2ccc3nc(NC(=O)C4CC4)cn3c2)cs1 [Example 4, 4-(2-(cyclopropanecarboxamido)imidazo[1,2-a]pyridin-6-yl)-N-(2,2,2-trifluoroethyl)thiazole-2-carboxamide]
5 | 25.1 | 180 to 182 | 813 |  |  | CC(=O)Nc1cn2cc(-c3csc(C(=O)NCC(F)(F)F)c3)ccc2n1 [Example 13, 4-(2-acetamidoimidazo[1,2-a]pyridin-6-yl)-N-(2,2,2-trifluoroethyl)thiophene-2-carboxamide]
6 | 39.8 | 230 to 232 | 1740 |  |  | COCC(=O)Nc1cn2cc(-c3csc(C(=O)NCC(F)(F)F)c3)ccc2n1 [Example 14, 4-(2-(2-methoxyacetamido)imidazo[1,2-a]pyridin-6-yl)-N-(2,2,2-trifluoroethyl)thiophene-2-carboxamide]
7 | 25.1 | 231 to 233 | 933 |  |  | COCCC(=O)Nc1cn2cc(-c3csc(C(=O)NCC(F)(F)F)c3)ccc2n1 [Example 15, 4-(2-(3-methoxypropanamido)imidazo[1,2-a]pyridin-6-yl)-N-(2,2,2-trifluoroethyl)thiophene-2-carboxamide]
8 | 63.1 |  | 3240 |  |  | O=C(NC1COCC1O)c1nc(-c2ccc3nc(NC(=O)C4CC4)cn3c2)cs1 (stereo not drawn) [Example 109, 4-(2-(cyclopropanecarboxamido)imidazo[1,2-a]pyridin-6-yl)-N-(4-hydroxytetrahydrofuran-3-yl)thiazole-2-carboxamide]
9 | 79.4 |  | 4370 |  |  | O=C(Nc1cn2cc(-c3csc(C(=O)N4CCC(O)C4)n3)ccc2n1)C1CC1 (stereo not drawn) [Example 112, N-(6-(2-(3-hydroxypyrrolidine-1-carbonyl)thiazol-4-yl)imidazo[1,2-a]pyridin-2-yl)cyclopropanecarboxamide]
10 | 126 |  | 2690 |  |  | O=C(Nc1cn2cc(-c3csc(C(=O)N4CC(O)C4)n3)ccc2n1)C1CC1 [Example 113, N-(6-(2-(3-hydroxyazetidine-1-carbonyl)thiazol-4-yl)imidazo[1,2-a]pyridin-2-yl)cyclopropanecarboxamide]
11 | 158 |  | 1620 |  |  | O=C(Nc1cn2cc(-c3csc(C(=O)N4CCCC4CO)n3)ccc2n1)C1CC1 (stereo not drawn) [Example 114, N-(6-(2-(2-(hydroxymethyl)pyrrolidine-1-carbonyl)thiazol-4-yl)imidazo[1,2-a]pyridin-2-yl)cyclopropanecarboxamide]
12 | 79.4 |  | 1510 |  |  | O=C(NCC(O)C(F)(F)F)c1nc(-c2ccc3nc(NC(=O)C4CC4)cn3c2)cs1 (stereo not drawn) [Example 115, 4-(2-(cyclopropanecarboxamido)imidazo[1,2-a]pyridin-6-yl)-N-(3,3,3-trifluoro-2-hydroxypropyl)thiazole-2-carboxamide]
13 | 200 |  | 3020 |  |  | O=C(Nc1cn2cc(-c3cc(C(=O)N4CCCC4)[nH]n3)ccc2n1)C1CC1 [Example 116]
14 | 50.1 |  | 6460 |  |  | CC(C)C(NC(=O)c1cc(-c2ccc3nc(NC(=O)C4CC4)cn3c2)cs1)C(F)(F)F (stereo not drawn) [Example 117, 4-(2-(cyclopropanecarboxamido)imidazo[1,2-a]pyridin-6-yl)-N-(1,1,1-trifluoro-3-methylbutan-2-yl)thiophene-2-carboxamide]
15 | 31.6 |  | 676 |  |  | O=C(NC1(C(F)(F)F)CC1)c1cc(-c2ccc3nc(NC(=O)C4CC4)cn3c2)cs1 [Example 118, 4-(2-(cyclopropanecarboxamido)imidazo[1,2-a]pyridin-6-yl)-N-(1-(trifluoromethyl)cyclopropyl)thiophene-2-carboxamide]
16 | 10 |  | 331 |  |  | O=C(Nc1cn2cc(-c3csc(C(=O)N(CCCO)CC(F)(F)F)c3)ccc2n1)C1CC1 [Example 119, 4-(2-(cyclopropanecarboxamido)imidazo[1,2-a]pyridin-6-yl)-N-(3-hydroxypropyl)-N-(2,2,2-trifluoroethyl)thiophene-2-carboxamide]
17 | 158 |  | 851 |  |  | O=C(Nc1cn2cc(-c3csc(C(=O)N(CCO)CC(F)(F)F)c3)ccc2n1)C1CC1 [Example 120, 4-(2-(cyclopropanecarboxamido)imidazo[1,2-a]pyridin-6-yl)-N-(2-hydroxyethyl)-N-(2,2,2-trifluoroethyl)thiophene-2-carboxamide]
18 | 39.8 |  | 1120 |  |  | COCCN(CC(F)F)C(=O)c1cc(-c2ccc3nc(NC(=O)C4CC4)cn3c2)cs1 [Example 121, 4-(2-(cyclopropanecarboxamido)imidazo[1,2-a]pyridin-6-yl)-N-(2,2-difluoroethyl)-N-(2-methoxyethyl)thiophene-2-carboxamide]
19 | 126 |  | 3720 |  |  | O=C(NC1COC1)c1nc(-c2ccc3nc(NC(=O)C4CC4)cn3c2)cs1 [Example 122, 4-(2-(cyclopropanecarboxamido)imidazo[1,2-a]pyridin-6-yl)-N-(oxetan-3-yl)thiazole-2-carboxamide]
20 | 100 |  | 2190 |  |  | CC1CCCN1C(=O)c1cc(-c2ccc3nc(NC(=O)C4CC4)cn3c2)n[nH]1 (stereo not drawn) [Example 123, N-(6-(5-(2-methylpyrrolidine-1-carbonyl)-1H-pyrazol-3-yl)imidazo[1,2-a]pyridin-2-yl)cyclopropanecarboxamide]
21 | 251 |  | 2140 |  |  | O=C(Nc1cn2cc(-c3csc(C(=O)N4CC(CO)C4)n3)ccc2n1)C1CC1 [Example 124, N-(6-(2-(3-(hydroxymethyl)azetidine-1-carbonyl)thiazol-4-yl)imidazo[1,2-a]pyridin-2-yl)cyclopropanecarboxamide]
22 | 6.31 |  | 19.1 |  |  | N[C@@H]1CCCC(F)(F)[C@@H]1NC(=O)c1cc(-c2ccc3nc(NC(=O)C4CC4)cn3c2)cs1 [Example 125, N-((1R,6R)-6-amino-2,2-difluorocyclohexyl)-4-(2-(cyclopropanecarboxamido)imidazo[1,2-a]pyridin-6-yl)thiophene-2-carboxamide]
23 | 10 |  | 55 |  |  | N[C@H]1CCCC(F)(F)[C@@H]1NC(=O)c1cc(-c2ccc3nc(NC(=O)C4CC4)cn3c2)cs1 [Example 126, N-((1R,6S)-6-amino-2,2-difluorocyclohexyl)-4-(2-(cyclopropanecarboxamido)imidazo[1,2-a]pyridin-6-yl)thiophene-2-carboxamide]
24 | 5.01 |  | 209 |  |  | O=C(Nc1cn2cc(-n3ccc(C(=O)N(CCO)CC(F)(F)F)n3)ncc2n1)C1CC1 [Example 127, 1-(2-(cyclopropanecarboxamido)imidazo[1,2-a]pyrazin-6-yl)-N-(2-hydroxyethyl)-N-(2,2,2-trifluoroethyl)-1H-pyrazole-3-carboxamide]
25 |  |  |  | 8.1 | 6.41 | (R)-4-(2-(cyclopropanecarboxamido)imidazo[1,2-a]pyrazin-6-yl)-N-(1,1,1-trifluoropropan-2-yl)thiazole-2-carboxamide [Example 7]
